Results as given in the NIST ThermoML archive (doi:10.1016/j.tca.2012.04.001).

What was measured:
[1] = 101.33 kPa, Liquid, Vibrating tube method
[2] = xn = mol fraction of the nth substance listed; settings: 101 kPa, Liquid, Vibrating tube method

CCCCCCC [heptane]
[1]
Settings	mass density [kg/m3]
288.15 K	688.588
303.15 K	675.838
313.15 K	665.838

CCCC(C)=O [pentan-2-one]
[1]
Settings	mass density [kg/m3]
288.15 K	811.491
303.15 K	796.955
313.15 K	787.16

CCCC(C)=O [pentan-2-one] + CCCCCCC
mass density [kg/m3], [2]
Settings	288.15 K	303.15 K	313.15 K
x2 = 0.0562	801.549	787.145	777.44
x2 = 0.1047	793.314	778.964	769.309
x2 = 0.1946	778.848	764.618	755.031
x2 = 0.2463	770.971	756.828	747.271
x2 = 0.3006	763.126	748.98	739.521
x2 = 0.312	761.486	747.38	737.93
x2 = 0.3664	754.046	740.019	730.578
x2 = 0.4233	746.601	732.618	723.231
x2 = 0.4921	738.067	724.274	714.996
x2 = 0.5566	730.511	716.874	707.632
x2 = 0.6001	725.625	712.061	702.877
x2 = 0.7003	715.045	701.616	692.572
x2 = 0.7526	709.893	696.524	687.536
x2 = 0.8233	703.177	689.947	681.074
x2 = 0.8918	697.119	684.045	675.297
x2 = 0.95	692.408	679.462	670.763

CCCC(C)=O [pentan-2-one] + CCCCCl
mass density [kg/m3], [2]
Settings	288.15 K	303.15 K	313.15 K
x2 = 0.0725	816.977	802.287	792.387
x2 = 0.1054	819.501	804.742	794.796
x2 = 0.1321	821.521	806.72	796.726
x2 = 0.2299	829.083	814.071	803.941
x2 = 0.2994	834.489	819.331	809.089
x2 = 0.3515	838.598	823.323	813
x2 = 0.4369	845.4	829.942	819.494
x2 = 0.493	849.874	834.295	823.772
x2 = 0.5816	857.018	841.242	830.585
x2 = 0.6518	862.707	846.788	836.036
x2 = 0.6948	866.208	850.202	839.378
x2 = 0.749	870.664	854.538	843.633
x2 = 0.8055	875.345	859.097	848.116
x2 = 0.8359	877.911	861.609	850.574
x2 = 0.8866	882.185	865.757	854.665
x2 = 0.9145	884.566	868	856.9
